Test results as given in patent publication US6376497B1, “Antifungal azole derivatives having a fluorinated vinyl group and process for preparing same” (Korea Research Institute of Chemical Technology, priority 1999, dated 2002).

Legend:
Experiment in all cases: In vitro antifungal activity, microbroth dilution MIC
Format in all cases: cell-based
[1] = system: Aspergillus furnigatus B. 19119; settings: for Minimal inhibitory concentration(MIC), A furnigatus B. 19119: RPMI-1640, 35° C., no growth observed
In short: (§1)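 Broth microdilution adapted from NCCLS M27, in RPMI-1640 with 0.165 M MOPS, pH 7.0. Yeast or mould inoculum at 2×10^3 CFU/ml was mixed 1:1 with DMSO-derived compound solutions (200 to 0.10 μg/ml before mixing) and incubated at 35 °C for 4 to 48 h. MIC was the concentration showing no growth.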

[2] = system: Aspergillus niger A. 16404; settings: for Minimal inhibitory concentration(MIC), A. niger A. 16404: RPMI-1640, 35° C., no growth observed
In short: as §1

[3] = system: Candida albicans A. 10231; settings: 4 to 48 hours; for Minimal inhibitory concentration(MIC), C. albicans A. 10231: RPMI-1640, 35° C., no growth observed
In short: as §1

Candida albicans C1-2 = settings: 4 to 48 hours; for Minimal inhibitory concentration(MIC), C. albicans C1-2: RPMI-1640, 35° C., no growth observed
In short: as §1

[4] = system: Candida albicans IFO. 1385; settings: 4 to 48 hours; for Minimal inhibitory concentration(MIC), C. albicans IFO. 1385: RPMI-1640, 35° C., no growth observed
In short: as §1

Candida krusei K. 11655 = settings: 4 to 48 hours; for Minimal inhibitory concentration(MIC), C. krusei K. 11655: RPMI-1640, 35° C., no growth observed
In short: as §1

[5] = system: Candida parapsitosis A. 7330; settings: 4 to 48 hours; for Minimal inhibitory concentration(MIC), C. parapsitosis A. 7330: RPMI-1640, 35° C., no growth observed
In short: as §1

[6] = system: Candida pseudotropicalis K. 11658; settings: 4 to 48 hours; for Minimal inhibitory concentration(MIC), C. pseudotropicalis K. 11658: RPMI-1640, 35° C., no growth observed
In short: as §1

[7] = system: Candida tropicalis A. 13803; settings: 4 to 48 hours; for Minimal inhibitory concentration(MIC), C. tropicalis A. 13803: RPMI-1640, 35° C., no growth observed
In short: as §1

[8] = system: Cryptococcus neoformans A. 34144; settings: for Minimal inhibitory concentration(MIC), Cry. neoformans A. 34144: RPMI-1640, 35° C., no growth observed
In short: as §1

[9] = system: Cryptococcus neoformans B. 42419; settings: 4 to 48 hours; for Minimal inhibitory concentration(MIC), Cry. neoformans B. 42419: RPMI-1640, 35° C., no growth observed
In short: as §1

[10] = system: Cryptococcus neoformans IFM. 40092; settings: for Minimal inhibitory concentration(MIC), Cry. neoformans IFM. 40092: RPMI-1640, 35° C., no growth observed
In short: as §1

[11] = system: Torulopsis glabrata B. 16205; settings: 4 to 48 hours; for Minimal inhibitory concentration(MIC), T. glabrata B. 16205: RPMI-1640, 35° C., no growth observed
In short: as §1

[12] = system: Trichophyton mentagrophytes A. 9129; settings: for Minimal inhibitory concentration(MIC), T. mentagrophytes A. 9129: RPMI-1640, 35° C., no growth observed
In short: as §1

[13] = system: Trichophyton mentagrophytes B. 32663; settings: for Minimal inhibitory concentration(MIC), T. mentagrophytes B. 32663: RPMI-1640, 35° C., no growth observed
In short: as §1

Compound	Minimal inhibitory concentration(MIC), A furnigatus B. 19119 ([1]; 4 to 48 hours)	Minimal inhibitory concentration(MIC), A. niger A. 16404 ([2]; 4 to 48 hours)	Minimal inhibitory concentration(MIC), C. albicans A. 10231 [3]	Minimal inhibitory concentration(MIC), C. albicans C1-2 (Candida albicans C1-2)	Minimal inhibitory concentration(MIC), C. albicans IFO. 1385 [4]	Minimal inhibitory concentration(MIC), C. krusei K. 11655 (Candida krusei K. 11655)	Minimal inhibitory concentration(MIC), C. parapsitosis A. 7330 [5]	Minimal inhibitory concentration(MIC), C. pseudotropicalis K. 11658 [6]	Minimal inhibitory concentration(MIC), C. tropicalis A. 13803 [7]	Minimal inhibitory concentration(MIC), Cry. neoformans A. 34144 ([8]; 4 to 48 hours)	Minimal inhibitory concentration(MIC), Cry. neoformans B. 42419 [9]	Minimal inhibitory concentration(MIC), Cry. neoformans IFM. 40092 ([10]; 4 to 48 hours)	Minimal inhibitory concentration(MIC), T. glabrata B. 16205 [11]	Minimal inhibitory concentration(MIC), T. mentagrophytes A. 9129 ([12]; 4 to 48 hours)	Minimal inhibitory concentration(MIC), T. mentagrophytes B. 32663 ([13]; 4 to 48 hours)	also measured
FC(OCC1COC(Cn2ccnc2)(c2ccc(F)cc2F)O1)=C(c1ccc(Oc2ccccc2)cc1)C(F)(F)F (mixture of isomers) [Ex. 63]	–	–	–	–	–	–	–	–	–	–	–	–	–	–	–	Minimal inhibitory concentration (MIC) ([1]; A furnigatus B. 19119, RPMI-1640, 35° C., 4 to 48 hours): >100 µg/mL; Minimal inhibitory concentration (MIC) ([2]; A. niger A. 16404, RPMI-1640, 35° C., 4 to 48 hours): >100 µg/mL; Minimal inhibitory concentration (MIC) ([3]; C. albicans A. 10231, RPMI-1640, 35° C.): 25.0 µg/mL; Minimal inhibitory concentration (MIC) (Candida albicans C1-2; C. albicans C1-2, RPMI-1640, 35° C.): 50.0 µg/mL; Minimal inhibitory concentration (MIC) ([4]; C. albicans IFO. 1385, RPMI-1640, 35° C.): 3.13 µg/mL; Minimal inhibitory concentration (MIC) (Candida krusei K. 11655; C. krusei K. 11655, RPMI-1640, 35° C.): >100 µg/mL; Minimal inhibitory concentration (MIC) ([5]; C. parapsitosis A. 7330, RPMI-1640, 35° C.): >100 µg/mL; Minimal inhibitory concentration (MIC) ([6]; C. pseudotropicalis K. 11658, RPMI-1640, 35° C.): >100 µg/mL; Minimal inhibitory concentration (MIC) ([7]; C. tropicalis A. 13803, RPMI-1640, 35° C.): >100 µg/mL; Minimal inhibitory concentration (MIC) ([8]; Cry. neoformans A. 34144, RPMI-1640, 35° C., 4 to 48 hours): 1.56 µg/mL; Minimal inhibitory concentration (MIC) ([9]; Cry. neoformans B. 42419, RPMI-1640, 35° C.): 1.56 µg/mL; Minimal inhibitory concentration (MIC) ([10]; Cry. neoformans IFM. 40092, RPMI-1640, 35° C., 4 to 48 hours): 0.39 µg/mL; Minimal inhibitory concentration (MIC) ([11]; T. glabrata B. 16205, RPMI-1640, 35° C.): 25.0 µg/mL; Minimal inhibitory concentration (MIC) ([12]; T. mentagrophytes A. 9129, RPMI-1640, 35° C., 4 to 48 hours): 25.0 µg/mL; Minimal inhibitory concentration (MIC) ([13]; T. mentagrophytes B. 32663, RPMI-1640, 35° C., 4 to 48 hours): 6.25 µg/mL
Cc1ccc(C(=C(F)OCC2COC(Cn3cncn3)(c3ccc(Cl)cc3Cl)O2)C(F)(F)F)cc1 (mixture of isomers) [Ex. 81]	>100 µg/mL	>100 µg/mL	>100 µg/mL	>100 µg/mL	12.5 µg/mL	>100 µg/mL	>100 µg/mL	50.0 µg/mL	>100 µg/mL	0.78 µg/mL	1.56 µg/mL	0.39 µg/mL	>100 µg/mL	100 µg/mL	100 µg/mL	–
FC(Oc1ccc(OCC2COC(Cn3ccnc3)(c3ccc(F)cc3F)O2)cc1)=C(c1cccc(C(F)(F)F)c1)C(F)(F)F (mixture of isomers) [Ex. 111]	>100 µg/mL	>100 µg/mL	100 µg/mL	50.0 µg/mL	3.13 µg/mL	>100 µg/mL	100 µg/mL	100 µg/mL	>100 µg/mL	1.56 µg/mL	3.13 µg/mL	0.39 µg/mL	100 µg/mL	6.25 µg/mL	3.13 µg/mL	–
COc1ccc(C(=C(F)N2CCN(c3ccc(OCC4COC(Cn5ccnc5)(c5ccc(F)cc5F)O4)cc3)CC2)C(F)(F)F)cc1 (mixture of isomers) [Ex. 144]	–	–	>100 µg/mL	>100 µg/mL	0.39 µg/mL	6.25 µg/mL	3.13 µg/mL	1.56 µg/mL	>100 µg/mL	–	0.39 µg/mL	–	>100 µg/mL	–	–	Minimal inhibitory concentration(MIC), A furnigatus B. 19119 [1]: 100 µg/mL; Minimal inhibitory concentration(MIC), A. niger A. 16404 [2]: >100 µg/mL; Minimal inhibitory concentration(MIC), Cry. neoformans A. 34144 [8]: 3.13 µg/mL; Minimal inhibitory concentration(MIC), Cry. neoformans IFM. 40092 [10]: 0.39 µg/mL; Minimal inhibitory concentration(MIC), T. mentagrophytes A. 9129 [12]: 12.5 µg/mL; Minimal inhibitory concentration(MIC), T. mentagrophytes B. 32663 [13]: 1.56 µg/mL
